Measured values published in patent US20250345345A1, “METHODS FOR THE TREATMENT OF NEUROLOGICAL DISORDERS” (Praxis Precision Medicines, Inc., priority 2022, published 2025).

Assays:
[1] = evening versus morning administration; as disclosed in WO 2022/232104; cited from earlier work
[2] = system: PTZ-evoked seizures in CD-1 male mice; assay: PTZ acute seizure model, combination of Compound 1 with Compound A (Example 2); format: in vivo; details: 30 minutes before PTZ 120 mg/kg s.c., n=12
Description: The combination of Compound 1 with Compound A for the treatment of seizures was investigated using a PTZ acute seizure model. Accordingly, the effect on PTZ-evoked seizures was evaluated for a vehicle control, Compound A alone, Compound 1 alone, and a combination of Compound 1 and Compound A.
Six-week old CD-1 male mice (25-35 g) were used in the following experiment. Study groups (n=12 for each group) were as follows: • (1) 35% 2-hydroxypropyl-beta-cyclodextrin (HPBCD), the vehicle for Compound 1 and Compound A (10 ml/kg, p.o.); • (2) Compound A (1 mg/kg, p.o.); • (3) Compound A (3 mg/kg, p.o.); • (4) Compound A (6 mg/kg, p.o.); • (5) Compound A (10 mg/kg, p.o); • (6) Compound 1 (10 mg/kg, p.o.); and • (7) Compound A (1 mg/kg, p.o.) and Compound 1 (10 mg/kg, p.o.).
In each instance, 30 minutes after administration of the vehicle or compound(s), PTZ was administered at 120 mg/kg, s.c., 10 ml/kg.
Dosing solutions were made from stock solutions of the highest dose and diluted down for the lower doses. All solutions were protected from light and made fresh daily for two experiment days. […]
Latency and total numbers of clonic/tonic seizures were recorded for 30 minutes, and latency to death was also recorded up to 30 minutes. […] The latency and number of seizures for each mouse was recorded by an individual blinded to the treatment. […]

[3] = evening versus morning dosing; Khodadoustan et al. 2017; cited from earlier work

For `COC[C@@]1(O)CC[C@@]2(C)[C@@H](CC[C@@H]3[C@@H]2CC[C@]2(C)[C@@H](C(=O)Cn4ccnc4)CC[C@@H]32)C1` [Compound 1, 3α-Hydroxy-3β-methoxymethyl-21-(1′-imidazolyl)-5α-pregnan-20-one], the “maximum observed plasma concentration (Cmax), evening compared to morning administration” value [1] is listed as “reduces”, the “overall drug exposure (AUCinf), evening compared to morning administration” value [1] is listed as “similar” and the “time to maximum plasma concentration (tmax), evening compared to morning administration” value [1] is listed as “increases”. The “seizure-free mice of the twelve mice” value ([2]; Compound 1 10 mg/kg p.o. alone, n.s. versus combination) was 3.

With `CCOC(F)(F)c1nnc2ccc(-c3cnc(OCC(F)(F)F)c(F)c3)cn12` [Compound A] the “seizure-free mice of the twelve mice” value ([2]; Compound A 1 mg/kg p.o. alone, p<0.01 versus combination) was “none”.

For `CCOC(=O)C1=C(COCCN)NC(C)=C(C(=O)OC)C1c1ccccc1Cl` (stereo not shown) [amlodipine besylate], the “Cmax, evening administration compared to morning dosing” value [3] is listed as “increased” and the “Tmax, evening administration compared to morning dosing” value [3] is listed as “reduced”.
